ChEMBL document CHEMBL2375331, “Daphnane-type diterpenes with inhibitory activities against human cancer cell lines from Daphne genkwa” (Bioorg Med Chem Lett, 2013)

Experiments:
Assay type in all cases: functional, cell-based
MCF7 = assay: Cytotoxicity against human MCF7 cells after 48 hrs by MTT assay; conditions: MCF7, 48 h
K562 = assay: Cytotoxicity against human K562 cells after 48 hrs by MTT assay; conditions: K562, 48 h
HeLa = assay: Cytotoxicity against human HeLa cells after 48 hrs by MTT assay
A549 = assay: Cytotoxicity against human A549 cells after 48 hrs by MTT assay; conditions: A549, 48 h
HT-1080 = assay: Cytotoxicity against human HT1080 cells after 48 hrs by MTT assay; conditions: HT-1080, 48 h
U-937 = assay: Cytotoxicity against human U937 cells after 48 hrs by MTT assay; conditions: U-937, 48 h
HL-60 = assay: Cytotoxicity against human HL60 cells after 48 hrs by MTT assay; conditions: HL-60, 48 h
[1] = Cytotoxicity against human A375-S2 cells after 48 hrs by MTT assay; conditions: A375-S2, 48 h
HCT-116 = assay: Cytotoxicity against human HCT116 cells after 48 hrs by MTT assay; conditions: HCT-116, 48 h
HepG2 = assay: Cytotoxicity against human HepG2 cells after 48 hrs by MTT assay; conditions: HepG2, 48 h

Row | Compound | IC50 (MCF7) [µM] | IC50 (K562) [µM] | IC50 (HeLa) [µM] | IC50 (A549) [µM] | IC50 (HT-1080) [µM] | IC50 (U-937) [µM] | IC50 (HL-60) [µM] | IC50 [1] [µM] | IC50 (HCT-116) [µM] | IC50 (HepG2) [µM]
1 | O=c1[nH]cc(F)c(=O)[nH]1 [FLUOROURACIL] | 11.5 | 23.6 | 7.34 | 44.1 | 35.6 | 23.9 | 10.1 | 6.67 | 27.8 | 40.3
2 | C=C(C)[C@]1(O)C[C@@H](C)[C@@]2(O)[C@H]([C@H]1OC(=O)c1ccccc1)[C@H](O)[C@](O)(COC(=O)/C=C/C=C/CCCCC)[C@@H](O)[C@@]1(O)[C@H]2C[C@H](C)[C@@H]1O | > 50 | 24.5 | 21.1 | 20.9 | 22.9 | 15.6 | 10.1 | 23.7 | 35.8 | 17.9
3 | C=C(C)[C@]12C[C@@H](C)[C@]34OC5(CCCCCCC[C@@H](C)[C@@H]6[C@@H]3[C@]3(O[C@]6(C)OC3=O)[C@H](O)[C@@]3(CO)O[C@H]3[C@H]4[C@H]1O5)O2 | 7.36 | 26.3 | 23.2 | > 50 | 20.8 | 22.9 | 34.1 | 23 | 26.5 | 25.2
4 | C=C(C)[C@]12C[C@@H](C)[C@@]34OC(c5ccccc5)(OC1[C@@H]3[C@@H]1O[C@]1(COC(=O)c1ccccc1)[C@@H](O)[C@@]1(O)[C@H]4C[C@H](C)[C@@H]1O)O2 | 25.3 | 20.2 | 20.2 | 23.4 | < 0.1 | 18.1 | 30.9 | 3.62 | 28.1 | 29.9
5 | C=C(C)[C@@]12O[C@@]3(/C=C/C=C/CCCCC)O[C@@H]1[C@@H]1[C@@H]4O[C@]4(CO)[C@@H](O)[C@]4(O)C(=O)C(C)=C[C@H]4[C@@]1(O3)[C@H](C)[C@H]2OC(C)=O [YUANHUADINE] | 4.11 | 22.2 | 17.1 | > 50 | < 0.1 | 14.7 | 30.1 | 15.8 | 32.6 | 26.3
6 | C=C(C)[C@@]12OC3(c4ccccc4)O[C@@H]1[C@@H]1[C@H](O)[C@](O)(CO)[C@@H](O)[C@]4(O)C(=O)C(C)=C[C@H]4[C@@]1(O3)[C@H](C)[C@H]2OC(=O)c1ccccc1 [YUANHUAOATE B] | 0.37 | 21.3 | 21 | 15.9 | 0.59 | 14.4 | 27 | 23.3 | 26.5 | 25.1
7 | C=C(C)[C@@]12OC3(/C=C/C=C/CCCCC)O[C@@H]1[C@@H]1[C@@H]4O[C@]4(CO)[C@@H](O)[C@]4(O)C(=O)C(C)=C[C@H]4[C@@]1(O3)[C@H](C)[C@H]2OC(=O)CC | > 50 | 29.4 | 25.5 | 18.8 | 28.8 | 27.4 | 22.7 | > 50 | 46.8 | 13.5
8 | C=C(C)[C@]12C[C@@H](C)[C@@]34OC5(CCCCCCC[C@H](C)[C@H]6[C@H](C)[C@H](OC(=O)c7ccccc7)[C@@](O)([C@H](O)[C@@]7(CO)O[C@H]7[C@H]3[C@H]1O5)[C@@H]64)O2 [PIMELEA FACTOR P2] | > 50 | 25.2 | 18.3 | 17 | 13.2 | 16.7 | 17.9 | 25.7 | 19.6 | 19.1
9 | C=C(C)[C@]12C[C@@H](C)[C@@]34O[C@](CCCCCCCCC)(O[C@@H]1[C@@H]3[C@@H]1O[C@]1(CO)[C@@H](O)[C@]1(O)C(=O)C(C)=C[C@H]14)O2 [SIMPLEXIN] | 25.4 | > 50 | 21.7 | 27 | < 0.1 | > 50 | > 50 | 10.7 | > 50 | 38.8
10 | C=C(C)[C@@]12O[C@@]3(/C=C/C=C/CCCCC)O[C@@H]1[C@@H]1[C@@H]4O[C@]4(CO)[C@@H](O)[C@]4(O)C(=O)C(C)=C[C@H]4[C@@]1(O3)[C@H](C)[C@H]2OC(=O)c1ccccc1 [GNIDILATIDIN] | 2.39 | 16.1 | 5.56 | 13.1 | 2.02 | 11.8 | 26.8 | 8.72 | 23 | 8.04
11 | C=C(C)[C@@]12OC3(/C=C/C=C\CCCCC)O[C@@H]1[C@@H]1[C@@H]4O[C@]4(CO)[C@@H](O)[C@]4(O)C(=O)C(C)=C[C@H]4[C@@]1(O3)[C@H](C)[C@H]2OC(C)=O [ISOYUANHUADINE] | 23.4 | 17.5 | 0.64 | 24.1 | 14.9 | 17.4 | 17.7 | 21.5 | 32.3 | 30
12 | C=C(C)[C@@]12O[C@@]3(c4ccccc4)O[C@@H]1[C@@H]1[C@@H]4O[C@]4(CO)[C@@H](O)[C@]4(O)C(=O)[C@@H](C)C[C@H]4[C@@]1(O3)[C@H](C)[C@H]2OC(=O)c1ccccc1 | 0.37 | 24.6 | 20.3 | 12.5 | 14.3 | 12.3 | 26 | 9.31 | 24.9 | 24.1
13 | C=C(C)[C@]12C[C@@H](C)[C@@]34OC5(CCCCCCC[C@@H](C)[C@H]6[C@H](C)[C@H](O)[C@@](O)([C@H](O)[C@@](O)(COC(=O)c7ccccc7)[C@@H](O)[C@H]3[C@H]1O5)[C@@H]64)O2 | > 50 | > 50 | 25.2 | 45 | 7.71 | > 50 | > 50 | 28.6 | > 50 | 28.6
14 | C=C(C)[C@]12C[C@@H](C)[C@@]34O[C@@]5(CCCCCCC[C@@H](C)[C@H]6[C@H](C)[C@H](O)[C@@](O)([C@H](O)[C@@]7(COC(=O)c8ccccc8)O[C@H]7[C@H]3[C@H]1O5)[C@@H]64)O2 | 19.9 | 18.7 | > 50 | 18.8 | 9.56 | 16.5 | 18.1 | 29.4 | 28.9 | 11.3
15 | C=C(C)[C@]12C[C@@H](C)[C@]34OC5(CCCCCCC[C@H](C)[C@@H]6[C@@H]3[C@]3(O[C@]6(C)OC3=O)[C@H](O)[C@@]3(CO)O[C@H]3[C@H]4[C@H]1O5)O2 | 20.3 | > 50 | 28.1 | 35.7 | 0.83 | > 50 | > 50 | > 50 | 36 | 28.1
16 | C=C(C)[C@@]12O[C@@]3(c4ccccc4)O[C@@H]1[C@@H]1[C@@H]4O[C@]4(CO)[C@@H](O)[C@]4(O)C(=O)[C@@H](C)C[C@H]4[C@@]1(O3)[C@H](C)[C@H]2OC(C)=O | 23.6 | > 50 | 50 | > 50 | < 0.1 | > 50 | > 50 | 14.2 | > 50 | > 50
17 | C=C(C)[C@@]12OC3(/C=C/C=C/CCCCC)O[C@@H]1[C@@H]1[C@@H]4O[C@]4(CO)[C@@H](O)[C@]4(O)C(=O)C(C)=C[C@H]4[C@@]1(O3)[C@H](C)[C@H]2OC(=O)C(C)C | 20.8 | 5.11 | > 50 | 23.1 | 4.55 | 27.6 | 30 | 24.9 | 25.2 | 17.8
18 | C=C(C)[C@]12C[C@@H](C)[C@@]34OC(c5ccccc5)(O[C@@H]1[C@@H]3[C@@H]1O[C@]1(CO)[C@@H](O)[C@@]1(O)[C@H]4C[C@H](C)[C@@H]1O)O2 [ORTHOBENZOATE] | 12.4 | 42.3 | 31.7 | > 50 | 24.5 | > 50 | > 50 | 47.2 | 49.9 | 48.9
19 | C=C(C)[C@]12C[C@@H](C)[C@@]34O[C@@]5(CCCCCCC[C@@H](C)[C@H]6[C@H](C)C(=O)[C@@](O)([C@H](O)[C@@]7(CO)O[C@H]7[C@H]3[C@H]1O5)[C@@H]64)O2 [WIKSTROELIDE E] | > 50 | 24 | 17.1 | 19.3 | 15.1 | 19.5 | 22.1 | 29 | 29.9 | 11.4
20 | C=C(C)[C@@]12O[C@@]3(c4ccccc4)O[C@@H]1[C@@H]1[C@@H]4O[C@]4(CO)[C@@H](O)[C@]4(O)C(=O)C(C)=C[C@H]4[C@@]1(O3)[C@H](C)[C@H]2OC(C)=O | > 50 | > 50 | 42.4 | > 50 | < 0.1 | > 50 | > 50 | > 50 | 37.5 | > 50
